Experimental data as given in ChEMBL document CHEMBL1833895, “Synthesis and biological activity of desmethoxy analogues of coruscanone A” (Bioorg Med Chem Lett, 2011).

Columns and labels:
Candida albicans [1] = test: Antifungal activity against Candida albicans ATCC 44859 after 48 hrs by microdilution method; type: functional; details: ATCC 44859, 48 h
Candida albicans [2] = test: Antifungal activity against Candida albicans ATCC 90028 after 24 hrs by microdilution method; type: functional; details: ATCC 90028, 24 h
Candida albicans [3] = test: Antifungal activity against Candida albicans ATCC 90028 after 48 hrs by microdilution method; type: functional; details: ATCC 90028, 48 h
Candida parapsilosis [4] = test: Antifungal activity against Candida parapsilosis ATCC 22019 after 24 hrs by microdilution method; type: functional; details: Lodderomyces parapsilosis, ATCC 22019, 24 h
Candida parapsilosis [5] = test: Antifungal activity against Candida parapsilosis ATCC 22019 after 48 hrs by microdilution method; type: functional; details: Lodderomyces parapsilosis, ATCC 22019, 48 h
Pichia kudriavzevii [6] = test: Antifungal activity against Candida krusei ATCC 6258 after 24 hrs by microdilution method; type: functional; details: ATCC 6258, 24 h
Pichia kudriavzevii [7] = test: Antifungal activity against Candida krusei ATCC 6258 after 48 hrs by microdilution method; type: functional; details: ATCC 6258, 48 h
Pichia kudriavzevii [8] = test: Antifungal activity against Candida krusei E28 after 24 hrs by microdilution method; type: functional; details: E28, 24 h
Pichia kudriavzevii [9] = test: Antifungal activity against Candida krusei E28 after 48 hrs by microdilution method; type: functional; details: E28, 48 h
Candida tropicalis [10] = test: Antifungal activity against Candida tropicalis 156 after 24 hrs by microdilution method; type: functional; details: Candida tropicalis, 156, 24 h
Candida tropicalis [11] = test: Antifungal activity against Candida tropicalis 156 after 48 hrs by microdilution method; type: functional; details: Candida tropicalis, 156, 48 h
Nakaseomyces glabratus [12] = test: Antifungal activity against Candida glabrata 20/I after 24 hrs by microdilution method; type: functional
Nakaseomyces glabratus [13] = test: Antifungal activity against Candida glabrata 20/I after 48 hrs by microdilution method; type: functional
Clavispora lusitaniae [14] = test: Antifungal activity against Candida lusitaniae 2446/I after 24 hrs by microdilution method; type: functional
Clavispora lusitaniae [15] = test: Antifungal activity against Candida lusitaniae 2446/I after 48 hrs by microdilution method; type: functional
Trichosporon asahii [16] = test: Antifungal activity against Trichosporon asahii 1188 after 24 hrs by microdilution method; type: functional; details: Trichosporon asahii, 1188, 24 h
Trichosporon asahii [17] = test: Antifungal activity against Trichosporon asahii 1188 after 48 hrs by microdilution method; type: functional; details: Trichosporon asahii, 1188, 48 h
Aspergillus fumigatus [18] = test: Antifungal activity against Aspergillus fumigatus 231 after 24 hrs by microdilution method; type: functional, organism-based; details: Aspergillus fumigatus, 231, 24 h
Aspergillus fumigatus [19] = test: Antifungal activity against Aspergillus fumigatus 231 after 48 hrs by microdilution method; type: functional, organism-based; details: Aspergillus fumigatus, 231, 48 h
Lichtheimia corymbifera [20] = test: Antifungal activity against Absidia corymbifera 272 after 24 hrs by microdilution method; type: functional, organism-based; details: Lichtheimia corymbifera, 272, 24 h
Lichtheimia corymbifera [21] = test: Antifungal activity against Absidia corymbifera 272 after 48 hrs by microdilution method; type: functional, organism-based; details: Lichtheimia corymbifera, 272, 48 h
Candida albicans [22] = test: Antifungal activity against Candida albicans ATCC 44859 after 24 hrs by microdilution method; type: functional; details: ATCC 44859, 24 h
[23] = tested on: Trichophyton mentagrophytes; test: Antifungal activity against Trichophyton mentagrophytes 445 after 72 hrs by microdilution method; type: functional, organism-based; details: Trichophyton mentagrophytes, 445, 72 h
[24] = tested on: Trichophyton mentagrophytes; test: Antifungal activity against Trichophyton mentagrophytes 445 after 120 hrs by microdilution method; type: functional, organism-based; details: Trichophyton mentagrophytes, 445, 120 h
L1210 = test: Cytostatic activity against mouse L1210 cells at 10 umol/L after 72 hrs by XTT assay; type: ADME, cell-based; details: l1210, 72 h, 10 µM
HL-60 = test: Cytostatic activity against human HL60 cells at 10 umol/L after 72 hrs by XTT assay; type: ADME, cell-based; details: hl-60, 72 h, 10 µM
[25] = Cytostatic activity against human HeLaS3 cells at 10 umol/L after 48 hrs by XTT assay; type: ADME, cell-based; details: hela s3, 48 h, 10 µM
CCRF-CEM = test: Cytostatic activity against human CCRF-CEM cells after 72 hrs by XTT assay; type: ADME, cell-based
HT-29 = test: Cytostatic activity against human HT-29 cells at 10 umol/L after 72 hrs by XTT assay; type: ADME, cell-based; details: ht-29, 72 h, 10 µM
[26] = Cytostatic activity against human COLO201 cells at 10 umol/L after 72 hrs by XTT assay; type: ADME, cell-based; details: colo 201, 72 h, 10 µM

Structure (SMILES) | IC80 (Candida albicans [1]) [µM] | IC80 (Candida albicans [2]) [µM] | IC80 (Candida albicans [3]) [µM] | IC80 (Candida parapsilosis [4]) [µM] | IC80 (Candida parapsilosis [5]) [µM] | IC80 (Pichia kudriavzevii [6]) [µM] | IC80 (Pichia kudriavzevii [7]) [µM] | IC80 (Pichia kudriavzevii [8]) [µM] | IC80 (Pichia kudriavzevii [9]) [µM] | IC80 (Candida tropicalis [10]) [µM] | IC80 (Candida tropicalis [11]) [µM] | IC80 (Nakaseomyces glabratus [12]) [µM] | IC80 (Nakaseomyces glabratus [13]) [µM] | IC80 (Clavispora lusitaniae [14]) [µM] | IC80 (Clavispora lusitaniae [15]) [µM] | IC80 (Trichosporon asahii [16]) [µM] | IC80 (Trichosporon asahii [17]) [µM] | IC80 (Aspergillus fumigatus [18]) [µM] | IC80 (Aspergillus fumigatus [19]) [µM] | IC80 (Lichtheimia corymbifera [20]) [µM] | further results
O=C1C=CC(=O)C1=Cc1ccccc1 | 1.95 | 3.9 | 7.81 | 3.9 | 3.9 | 3.9 | 3.9 | 3.9 | 7.81 | 3.9 | 3.9 | 7.81 | 7.81 | 7.81 | 15.6 | 1.95 | 3.9 | 15.6 | 31.2 | 250 | IC80 (Lichtheimia corymbifera [21]): 250 µM; IC80 (Candida albicans [22]): 1.95 µM; IC80 [23]: 1.95 µM; IC50 [24]: 3.9 µM; Activity (L1210): Non-toxic; Activity (HL-60): Non-toxic; Activity [25]: Non-toxic; IC50 (CCRF-CEM): 2.6 µM; Activity (HT-29): Non-toxic; Activity [26]: Non-toxic
COc1ccc(C=C2C(=O)C=CC2=O)cc1 | 7.81 | 7.81 | 7.81 | 7.81 | 15.6 | 3.9 | 3.9 | 3.9 | 7.81 | 7.81 | 7.81 | 7.81 | 7.81 | 7.81 | 31.2 | 7.81 | 31.2 | 15.6 | 31.2 | > 250 | IC80 (Lichtheimia corymbifera [21]): > 250 µM; IC80 (Candida albicans [22]): 3.9 µM; IC80 [23]: 3.9 µM; IC50 [24]: 7.81 µM; Activity (L1210): Non-toxic; Activity (HL-60): Non-toxic; Activity [25]: Non-toxic; IC50 (CCRF-CEM): 3.8 µM; Activity (HT-29): Non-toxic; Activity [26]: Non-toxic
Cc1ccc(C=C2C(=O)C=CC2=O)cc1 | 7.81 | 3.9 | 15.6 | 15.6 | 15.6 | 7.81 | 15.6 | 15.6 | 15.6 | 7.81 | 15.6 | 15.6 | 15.6 | 15.6 | 15.6 | 15.6 | 62.5 | 31.2 | 125 | > 250 | IC80 (Lichtheimia corymbifera [21]): > 250 µM; IC80 (Candida albicans [22]): 3.9 µM; IC80 [23]: 125 µM; IC50 [24]: > 250 µM; Activity (L1210): Non-toxic; Activity (HL-60): Non-toxic; Activity [25]: Non-toxic; IC50 (CCRF-CEM): 2.7 µM; Activity (HT-29): Non-toxic; Activity [26]: Non-toxic
O=C1C=CC(=O)C1=Cc1ccc(Cl)cc1 | 31.2 | 31.2 | 31.2 | 31.2 | 31.2 | 31.2 | 31.2 | 31.2 | 62.5 | 31.2 | 31.2 | 62.5 | 62.5 | 31.2 | 31.2 | 31.2 | 62.5 | 62.5 | 62.5 | > 125 | IC80 (Lichtheimia corymbifera [21]): > 125 µM; IC80 (Candida albicans [22]): 7.81 µM; IC80 [23]: 125 µM; IC50 [24]: > 125 µM; Activity (L1210): Non-toxic; Activity (HL-60): Non-toxic; Activity [25]: Non-toxic; IC50 (CCRF-CEM): 6.1 µM; Activity (HT-29): Non-toxic; Activity [26]: Non-toxic
